The values below come from patent publication US8492394B2, “(3-aryl-piperazin-1-yl), (2-aryl-morpholin-4-yl) and (2-aryl-thiomorpholin-4-yl) derivatives of 6,7-dialkoxy-quinazoline, 6,7-dialkoxyphtalazine and 6,7-dialkoxyisoquinoline as PDE10A enzyme inhibitors” (H. Lundbeck A/S, priority 2006, dated 2013).

In general, IC50 refers to the concentration at which inhibition is half-maximal.

Chain of PDE10A enzyme (Q9Y233 716-1055): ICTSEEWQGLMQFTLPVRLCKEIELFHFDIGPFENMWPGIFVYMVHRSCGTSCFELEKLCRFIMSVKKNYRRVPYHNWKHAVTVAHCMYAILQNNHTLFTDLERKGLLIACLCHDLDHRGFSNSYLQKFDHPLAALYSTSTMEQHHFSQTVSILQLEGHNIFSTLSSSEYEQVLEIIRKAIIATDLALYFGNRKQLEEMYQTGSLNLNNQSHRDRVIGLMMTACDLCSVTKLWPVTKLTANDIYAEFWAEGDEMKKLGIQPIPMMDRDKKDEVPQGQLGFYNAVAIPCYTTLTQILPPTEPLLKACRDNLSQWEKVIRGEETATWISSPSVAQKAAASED

One assay addresses PDE10A enzyme (Homo sapiens (Human), UniProt Q9Y233). Kind of assay: PDE10A inhibition assay. The class given is biochemical. The following applies: tritium labeled cAMP 5 nM, SPA; read-out: PDE10 IC50. Here is the method:
Active PDE10A enzyme is prepared in a number of ways for use in PDE assays (Loughney, K. et al. Gene 1999, 234, 109-117; Fujishige, K. et al. Eur J. Biochem. 1999, 266, 1118-1127 and Soderling, S. et al. Proc. Natl. Acad. Sci. 1999, 96, 7071-7076). PDE10A can be expressed as full-length proteins or as truncated proteins, as long as they express the catalytic domain. PDE10A can be prepared in different cell types, for example insect cells or E. coli. An example of a method to obtain catalytically active PDE10A is as follows: The catalytic domain of human PDE10A (amino acids 440-779 from the sequence with accession number NP 006652) is amplified from total human brain total RNA by standard RT-PCR and is cloned into the BamH1 and Xho 1 sites of the pET28a vector (Novagen). Expression in coli is performed according to standard protocols. Briefly, the expression plasmids are transformed into the BL21 (DE3) E. coli strain, and 50 mL cultures inoculated with the cells allowed to grow to an OD600 of 0.4-0.6 before protein expression is induced with 0.5 mM IPTG. Following induction, the cells are incubated overnight at room temperature, after which the cells are collected by centrifugation. Cells expressing PDE10A are resuspended in 12 mL (50 mM TRIS-HCl-pH8.0, 1 mM MgCl2 and protease inhibitors). The cells are lysed by sonication, and after all cells are lysed, TritonX100 is added according to Novagen protocols.
PDE10A assays have been described previously (Loughney, K. et al. Gene 1999, 234, 109-117; Fujishige, K. et al. Eur J Biochem. 1999, 266, 1118-1127 and Soderling, S. et al. Proc. Natl. Acad. Sci. 1999, 96, 7071-7076). PDE10A assays could for example can be performed as follows: PDE10A assays are performed in 60 uL samples containing a fixed amount of the relevant PDE enzyme (sufficient to convert 20-25% of the cyclic nucleotide substrate), a buffer (50 mM HEPES7.6; 10 mM MgCl2; 0.02% Tween20), 0.1 mg/ml BSA, 225 pCi of ^3H-labelled cyclic nucleotide substrate, tritium labeled cAMP to a final concentration of 5 nM and varying amounts of inhibitors. Reactions are initiated by addition of the cyclic nucleotide substrate, and reactions are allowed to proceed for one hr at room temperature before being terminated through mixing with 15 uL 8 mg/mL yttrium silicate SPA beads (Amersham). The beads are allowed to settle for one hr in the dark before the plates are counted in a Wallac 1450 Microbeta counter. The measured signal can be converted to activity relative to an uninhibited control (100%) and IC50 values can be calculated using the Xlfit extension to EXCEL.
For the compound `COc1cc2ncnc(N3CCSC(c4ccccc4)C3)c2cc1OC` (centres unmarked) [Compound 1, 6,7-Dimethoxy-4-(2-phenyl-thiomorpholin-4-yl)-quinazoline], the IC50 was 89 nM. Take `COc1cccc(C2CN(c3ncnc4cc(OC)c(OC)cc34)CCN2)c1` (centres unmarked) [Compound 2, 6,7-Dimethoxy-4-(3-(3-methoxyphenyl)-piperazin-1-yl)-quinazoline]: the IC50 came out at 33 nM.

As to `COc1cc2ncnc(N3CCOC(c4ccc(C)cc4)C3)c2cc1OC` (centres unmarked) [Compound 3, 6,7-Dimethoxy-4-(2-(4-methylphenyl)-morpholin-4-yl)-quinazoline], the IC50 stood at 79 nM. Turning to `COc1cccc([C@@H]2CN(c3ncnc4cc(OC)c(OC)cc34)CCN2)c1` [Compound 4, 6,7-Dimethoxy-4-((R)-3-(3-methoxyphenyl)-piperazin-1-yl)-quinazoline], the IC50 turned out to be 600 nM. On the same count and under the same terms, with `COc1cccc([C@H]2CN(c3ncnc4cc(OC)c(OC)cc34)CCN2)c1` [Compound 5, 6,7-Dimethoxy-4-((S)-3-(3-methoxyphenyl)-piperazin-1-yl)-quinazoline] the figure was 14 nM; with `COc1cc2ncnc(N3CCN[C@H](c4ccccc4)C3)c2cc1OC` [Compound 6, 6,7-Dimethoxy-4-((R)-3-phenyl-piperazin-1-yl)-quinazoline], 65 nM.

For the compound `COc1cc2ncnc(N3CCN[C@@H](c4ccccc4)C3)c2cc1OC` [Compound 7, 6,7-Dimethoxy-4-((S)-3-phenyl-piperazin-1-yl)-quinazoline], the IC50 worked out at 90 nM. With `COc1cc2ncnc(N3CCNC(c4cc(OC)c(OC)c(OC)c4)C3)c2cc1OC` (centres unmarked) [Compound 8, 4-[3-(3,4,5-trimethoxyphenyl)-piperazin-1-yl]-6,7-dimethoxy-quinazoline], the IC50 turned out to be 180 nM.

Turning to `COc1cc2ncnc(N3CCNC(c4ccccc4OC)C3)c2cc1OC` (centres unmarked) [Compound 9, 4-[3-(2-methoxyphenyl)-piperazin-1-yl]-6,7-dimethoxy-quinazoline], the IC50 was 110 nM. For the compound `COc1cc2ncnc(N3CCOC(c4ccc(F)cc4)C3)c2cc1OC` (centres unmarked) [Compound 10, 6,7-Dimethoxy-4-(2-(4-fluorophenyl)-morpholin-4-yl)-quinazoline], the IC50 came out at 200 nM. For the compound `COc1cc2ncnc(N3CCOC(c4ccc(Cl)cc4)C3)c2cc1OC` (centres unmarked) [Compound 11, 6,7-Dimethoxy-4-(2-(4-chlorophenyl)-morpholin-4-yl)-quinazoline], the IC50 was 260 nM. Still for that read-out and setting: with `COc1cc2ncnc(N3CCOC(c4ccc(C(F)(F)F)cc4)C3)c2cc1OC` (centres unmarked) [Compound 12, 6,7-Dimethoxy-4-(2-(4-trifluomethylphenyl)-morpholin-4-yl)-quinazoline] the figure was 660 nM; with `COc1cc2ncnc(N3CCOC(c4ccccc4Cl)C3)c2cc1OC` (centres unmarked) [Compound 13, 6,7-Dimethoxy-4-(2-(2-chlorophenyl)-morpholin-4-yl)-quinazoline], 190 nM; with `COc1cc2ncnc(N3CCNC(c4ccc(N(C)C)cc4)C3)c2cc1OC` (centres unmarked) [Compound 14, 4-[3-(4-dimethylaminophenyl)-piperazin-1-yl]-6,7-dimethoxy-quinazoline], 62 nM. For the compound `COc1cc2ncnc(N3CCNC(c4ccc5c(c4)OCO5)C3)c2cc1OC` (centres unmarked) [Compound 15, 4-[3-(3,4-methylenedioxyphenyl)-piperazin-1-yl]-6,7-dimethoxy-quinazoline], the 50% inhibitory concentration (IC50) turned out to be 35 nM. The same measure, in the same setting: with `COc1cc2ncnc(N3CCNC(c4cc(Cl)ccc4Cl)C3)c2cc1OC` (centres unmarked) [Compound 16, 4-[3-(2,5-dichlorophenyl)-piperazin-1-yl]-6,7-dimethoxy-quinazoline] the figure was 170 nM.

A further assay concerns rats.
Assay: not given
The following applies: alone; cited from earlier work.
In the case of `COc1ccc(Cc2nccc3cc(OC)c(OC)cc23)cc1OC` [Papaverin], the “catalepsy on its own” value is “did not cause catalepsy on its own”.

Staying with this assay, now noted: with the D2 receptor antagonist haloperidol; cited from earlier work.
In the case of `COc1ccc(Cc2nccc3cc(OC)c(OC)cc23)cc1OC` [Papaverin], the “cataleptic effect of haloperidol” value was “potentiated the cataleptic effect”.

The next assay relates to rats.
Assay: not given
The following applies: cited from earlier work.
Take `COc1ccc(Cc2nccc3cc(OC)c(OC)cc23)cc1OC` [Papaverin]: the “hyperactivity induced by PCP” value is recorded as “reduced hyperactivity”.

The next assay concerns rats.
Assay: not given
The following applies: cited from earlier work. The source holds these as a separate data set.
On to `COc1ccc(Cc2nccc3cc(OC)c(OC)cc23)cc1OC` [Papaverin], for which the “reduction of amphetamine induced hyperactivity” value is reported as “insignificant”.
